Test results: patent US11931366B2, “Compositions and methods of use thereof for treatment of proteinopathies” (priority 2018, dated 2024)
“Also recorded” adds a separate entry of the source. Where two headings read alike, the source gives them in different places.

Columns and labels:
[1] = system: transgenic C. elegans expressing human mutant alpha-1-antitrypsin gene fused to GFP; assay: High-throughput phenotypic drug screen and dose response in the C. elegans model of ATD (mutant AT accumulation); type: in vivo; conditions: for reduction of mutant AT accumulation: 8-point dose response curves, FIG. 4B, 5, 11; for hit in high-throughput screening campaign: C. elegans model of ATD, FIG. 4A
[2] = system: mutant AT protein accumulation in liver; type: in vivo, mouse; conditions: vs control (CTR)
[3] = system: autophagy pathway (LC3, p62); assay: Autophagy markers (LC3-II/I, p62) following fluphenazine treatment; type: in vivo; conditions: for autophagic flux: liver
[4] = following fluphenazine treatment

Row | SMILES | reduction of mutant AT accumulation [1] | hit in high-throughput screening campaign [1] | other results
1 | FC(F)(F)c1ccc(SCCCN2CCN(c3cccc(Cl)c3)CC2)nc1 [AW00794, Piperazine, 1-(3-chlorophenyl)-4-[3-[[5-(trifluoromethyl)-2-pyridinyl]thio]propyl]-] | reduce mutant AT protein accumulation; also recorded: reduces AT accumulation |  | 
2 | CN1CCN(CCCN2c3ccccc3Sc3ccc(C(F)(F)F)cc32)CC1 [trifluoperazine] | reduce mutant AT accumulation in a dose-dependent manner | hit compounds | 
3 | CN1CCN(CCCN2c3ccccc3Sc3ccc(Cl)cc32)CC1 [prochlorperazine] | reduce mutant AT accumulation in a dose-dependent manner | hit compounds | 
4 | CCSc1ccc2c(c1)N(CCCN1CCN(C)CC1)c1ccccc1S2 [thiethylperazine] | reduce mutant AT accumulation in a dose-dependent manner |  | 
5 | OC(CNCc1ccc(Cl)cc1)CSc1ccccc1 (stereo not drawn) [RDR 03172] | reduce mutant AT protein accumulation; also recorded: reducing AT accumulations in a dose-dependent manner |  | 
6 | OCCN1CCN(CCCN2c3ccccc3Sc3ccc(C(F)(F)F)cc32)CC1 [fluphenazine] | dose-dependent reduction of mutant AT; also recorded: reduce mutant AT accumulation in a dose-dependent manner | hit compounds | Sirius red staining (collagen deposition, liver fibrosis) ([2]; mouse liver sections): significantly reduced; accumulation of mutant AT protein (purple dots) in liver sections ([2]; transgenic mouse model of ATD): significantly reduced accumulation of mutant AT protein; percent area of purple dots (quantification of AT accumulations) ([2]; transgenic mouse model of ATD): significantly reduced; accumulation of mutant AT protein (purple dots) in liver sections ([2]; transgenic mouse model of ATD, listed as Fluphenazine): reduces mutant AT accumulation; reduction of mutant AT accumulation ([1]; listed as Fluphenazine): reduce misfolded AT protein accumulation in a dose and time-dependent manner; LC3-II/I ratio [3, 4]: increase; p62 [3, 4]: reduction; autophagic flux [3]: enhancing autophagic flux; autophagic flux ([3]; listed as Fluphenazine): enhances autophagic flux
7 | CSc1ccc2c(c1)N(CCC1CCCCN1C)c1ccccc1S2 (stereo not drawn) [thioridazine] | reduce mutant AT accumulation in a dose-dependent manner |  | 
8 | OCCN1CCN(CCCN2c3ccccc3Sc3ccc(Cl)cc32)CC1 [perphenazine] | reduce mutant AT accumulation in a dose-dependent manner | hit compounds | 
